Paper PMC6467542 (Bioorganic & Medicinal Chemistry, 2019)
Values after ≈ are worked out from the molar mass of the structure shown. Where two headings read alike, the source gives them in different places.

Tests used:
[1] = Cytotoxicity in Vero cells; format: cell-based; details: green monkey, Vero green monkey-derived epithelial kidney cells
[2] = test system: M. tb (strain H37Rv); assay: MIC90 against replicating M.tb (MABA); format: cell-based, Mycobacterium tuberculosis; details: Mycobacterium tuberculosis, aerobic (replicating) conditions, 90% inhibition of growth
[3] = test system: M. tb (strain H37Rv); assay: MIC90 against non-replicating M.tb (LORA); format: cell-based, Mycobacterium tuberculosis; details: Mycobacterium tuberculosis, H37RV, read-out: MIC90 LORA
Description: In these assays, 1 is a potent inhibitor, with MICs of 0.08 and 0.12 µg/mL, respectively. Replacement of the naphthalene C-unit of 1 with various pyridyls produced analogues of considerably lower lipophilicity, with clogP values ranging from 6.89 down to 2.98.

[4] = in vitro; details: human, microsomes
[5] = test system: M.tb; assay: Efficacy in a mouse model of TB (lung CFU reduction); format: in vivo
[6] = molecular target: CYP3A4 (Homo sapiens, UniProt P08684); assay: Inhibition of CYP 3A4; format: in vitro ADME
Chain of CYP3A4 (P08684 whole entry): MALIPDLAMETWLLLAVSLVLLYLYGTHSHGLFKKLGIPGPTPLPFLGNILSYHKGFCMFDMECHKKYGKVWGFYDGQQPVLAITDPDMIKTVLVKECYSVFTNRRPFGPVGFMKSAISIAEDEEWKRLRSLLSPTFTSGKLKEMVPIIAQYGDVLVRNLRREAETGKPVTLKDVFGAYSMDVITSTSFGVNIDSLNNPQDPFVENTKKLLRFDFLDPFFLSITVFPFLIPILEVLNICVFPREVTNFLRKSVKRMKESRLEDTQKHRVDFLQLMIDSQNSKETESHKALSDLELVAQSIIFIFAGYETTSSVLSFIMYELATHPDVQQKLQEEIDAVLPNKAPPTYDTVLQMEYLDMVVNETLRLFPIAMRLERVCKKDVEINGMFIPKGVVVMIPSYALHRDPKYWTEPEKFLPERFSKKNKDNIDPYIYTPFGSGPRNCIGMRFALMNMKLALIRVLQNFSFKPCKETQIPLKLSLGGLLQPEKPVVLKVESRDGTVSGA

[7] = molecular target: hERG potassium channel (Homo sapiens, UniProt Q12809); assay: Inhibition of hERG potassium current (patch clamp electrophysiology); details: for IC50: read-out: hERG IC50, manual patch clamp, 5-concentration dose-response; for hERG % inhibition at 3 µM: manual or (less accurate) QPatch assay
Chain of hERG potassium channel (Q12809 whole entry): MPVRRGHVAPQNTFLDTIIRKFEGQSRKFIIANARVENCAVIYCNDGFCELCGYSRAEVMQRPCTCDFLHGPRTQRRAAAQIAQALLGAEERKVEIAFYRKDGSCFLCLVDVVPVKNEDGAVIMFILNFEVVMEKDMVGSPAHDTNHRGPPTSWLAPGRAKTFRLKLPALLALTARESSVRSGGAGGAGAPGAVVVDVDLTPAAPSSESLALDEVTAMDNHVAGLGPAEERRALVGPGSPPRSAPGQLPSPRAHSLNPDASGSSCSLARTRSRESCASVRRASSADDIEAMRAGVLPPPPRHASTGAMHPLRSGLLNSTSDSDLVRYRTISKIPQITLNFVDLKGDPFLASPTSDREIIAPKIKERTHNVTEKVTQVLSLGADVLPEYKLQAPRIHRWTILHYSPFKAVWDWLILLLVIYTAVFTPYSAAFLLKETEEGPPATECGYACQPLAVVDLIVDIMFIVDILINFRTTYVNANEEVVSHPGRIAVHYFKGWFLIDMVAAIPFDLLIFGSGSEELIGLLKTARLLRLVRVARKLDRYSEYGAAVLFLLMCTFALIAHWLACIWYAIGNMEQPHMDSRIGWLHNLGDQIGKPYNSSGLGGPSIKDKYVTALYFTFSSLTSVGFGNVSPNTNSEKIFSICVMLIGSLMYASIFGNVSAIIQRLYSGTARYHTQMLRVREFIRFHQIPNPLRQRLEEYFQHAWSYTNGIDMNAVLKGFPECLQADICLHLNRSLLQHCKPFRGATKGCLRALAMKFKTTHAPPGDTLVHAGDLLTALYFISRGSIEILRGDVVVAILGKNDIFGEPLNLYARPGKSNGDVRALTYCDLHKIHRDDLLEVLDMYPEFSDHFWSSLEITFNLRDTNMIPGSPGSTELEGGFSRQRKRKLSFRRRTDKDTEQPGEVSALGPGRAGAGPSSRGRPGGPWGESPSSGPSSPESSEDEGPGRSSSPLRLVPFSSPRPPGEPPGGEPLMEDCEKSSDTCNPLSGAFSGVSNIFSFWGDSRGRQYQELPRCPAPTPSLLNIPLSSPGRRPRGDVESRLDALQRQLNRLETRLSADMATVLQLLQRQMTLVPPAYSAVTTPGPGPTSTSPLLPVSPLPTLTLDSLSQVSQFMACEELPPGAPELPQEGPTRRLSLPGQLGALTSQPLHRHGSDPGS

[8] = mouse, in vivo
[9] = in vitro; details: mouse, microsomes
[10] = in vivo; details: mouse, iv
[11] = Clearance by human liver microsomes
[12] = Clearance by mouse liver microsomes
[13] = Mouse pharmacokinetics
[14] = Mycobacterium tuberculosis, inhaled or nasal, 288 h; read-out: Log reduction in colony-forming units (CFU), new compound

Compound	MIC90 [2] [µg/mL]	MIC90 [3] [µg/mL]	microsomal CLint [4] [µL/min/mg]	log reduction at 20 mg/kg [5, 14]	IC50 [7] [µM]	AUC: exposure, AUCinf [8] [ng·h/mL]	IV Cl: IV clearance [8] [mL/min/kg]	Vz: IV apparent volume of distribution during terminal phase [8] [L/kg]	F: oral bioavailability [8] [%]	microsomal CLint [9] [µL/min/mg]	clearance [10] [mL/min/kg]	further results
COc1nc2ccc(Br)cc2cc1[C@@H](c1ccccc1)[C@@](O)(CCN(C)C)c1cccc2ccccc12 [Compound 1, Bedaquiline, reference compound]	0.08 (≈ 0.144 µM)	0.12 (≈ 0.216 µM)	–	–	–	–	–	–	–	–	–	IC50 [1]: 4 to 16 µg/mL (≈ 7.2 to 28.8 µM)
COc1cccc(C(O)(CCN(C)C)C(c2cc3cc(Br)ccc3nc2OC)c2cccc3c2OCO3)n1 (centres unmarked) [Compound 15]	0.54 (≈ 0.93 µM)	0.58 (≈ 0.999 µM)	8	0.3	0.24	5600	13	10	45	25	–	IC50 [6]: 7.6 µM
COc1nc2ccc(Br)cc2cc1C(c1cccc(C)c1)C(O)(CCN(C)C)c1cccnc1C (centres unmarked) [Compound 19]	0.15 (≈ 0.281 µM)	0.25 (≈ 0.468 µM)	35	–	–	400	59	33	10	71	> 50	hERG % inhibition at 3 µM [7]: 26%/3
COc1cccc(C(c2cc3cc(Br)ccc3nc2OC)C(O)(CCN(C)C)c2ccc(C)nc2)c1F (centres unmarked) [Compound 22]	0.3 (≈ 0.528 µM)	0.28 (≈ 0.493 µM)	24	–	–	250	67	10	8	99	> 50	hERG % inhibition at 3 µM [7]: 17%/3
COc1cccc(C(c2cc3cc(Br)ccc3nc2OC)C(O)(CCN(C)C)c2cc(C)cnc2C)c1OC (centres unmarked) [Compound 33]	0.07 (≈ 0.118 µM)	0.11 (≈ 0.185 µM)	7	3.5	1.1	1390	79	77	72	17	> 50	–
COc1cccc(C(c2cc3cc(Br)ccc3nc2OC)C(O)(CCN(C)C)c2cnc(C)cc2C)c1OC (centres unmarked) [Compound 38]	0.02 (≈ 0.0336 µM)	0.24 (≈ 0.404 µM)	13	0.7	3.9	2080	28	23	34	46	–	–
COc1nc2ccc(Br)cc2cc1C(c1cccc(C)c1)C(O)(CCN(C)C)c1cccnc1OC (centres unmarked) [Compound 39]	0.13 (≈ 0.236 µM)	0.14 (≈ 0.254 µM)	10	0.6	0.45	2510	–	–	–	20	–	–
COc1nc2ccc(C#N)cc2cc1C(c1cccc(C)c1)C(O)(CCN(C)C)c1cccnc1OC (centres unmarked) [Compound 40]	0.52 (≈ 1.05 µM)	0.76 (≈ 1.53 µM)	11	0.5	0.3	1170	48	6.6	33	53	–	–
COc1nc2ccc(Br)cc2cc1C(c1cccc2c1OCO2)C(O)(CCN(C)C)c1cccnc1OC (centres unmarked) [Compound 41]	0.66 (≈ 1.14 µM)	1.1 (≈ 1.89 µM)	36	0.3	–	3780	27	20	46	19	–	hERG % inhibition at 3 µM [7]: 26%/3
COc1cc(C(O)(CCN(C)C)C(c2cc3cc(Br)ccc3nc2OC)c2ccnc(OC)c2OC)cnc1OC (centres unmarked) [Compound 48]	0.06 (≈ 0.0956 µM)	0.45 (≈ 0.717 µM)	5	0.9	3.6	4280	19	6.0	48	59	–	–
COc1cccc(C(c2cc3cc(C#N)ccc3nc2OC)C(O)(CCN(C)C)c2cc(C)nc(C)c2)c1F (centres unmarked) [Compound 55]	0.6 (≈ 1.14 µM)	0.91 (≈ 1.72 µM)	12	–	–	350	130	53	25	51	> 50	hERG % inhibition at 3 µM [7]: 37%/3
COc1cccc(C(c2cc3cc(C#N)ccc3nc2OC)C(O)(CCN(C)C)c2cc(C)nc(C)c2)c1OC (centres unmarked) [Compound 57]	0.24 (≈ 0.444 µM)	0.61 (≈ 1.13 µM)	7	1.9	5.2	1480	71	82	54	7	> 50	–
CCOc1cc(C(O)(CCN(C)C)C(c2cc3cc(Br)ccc3nc2OC)c2ccnc(OC)c2OC)cc(OC(C)C)n1 (centres unmarked) [Compound 61]	0.01 (≈ 0.0149 µM)	0.06 (≈ 0.0896 µM)	–	–	–	–	–	–	–	–	–	microsomal CLint [11]: 8 µL/min/mg; log reduction at 20 mg/kg ([5]; Mycobacterium tuberculosis, inhaled or nasal, 288 h, read-out: Log reduction in colony-forming units (CFU), new compound): 5; microsomal CLint [12]: 7 µL/min/mg; F: oral bioavailability ([13]; mice): 50%; AUC: exposure, AUCinf ([13]; mouse): 10900 ng·h/mL; IV Cl: IV clearance ([13]; mouse, IV): 7 mL/min/kg; Vz: IV apparent volume of distribution during terminal phase ([13]; mouse, IV): 44 L/kg
CCOc1cc(C(O)(CCN(C)C)C(c2cc(OC)nc(OC)c2)c2cc3cc(Br)ccc3nc2OC)cc(OC(C)C)n1 (centres unmarked) [Compound 62]	< 0.02	–	1	4.5	> 10	33000	3	20	58	2.3	–	–
